Patent US11040053B2, “Compositions and methods for activating “stimulator of interferon gene”13 dependent signalling” (CHINOOK THERAPEUTICS, INC., priority 2015, dated 2021)
“Also recorded” adds a separate entry of the source.

Legend:
[1] = biological target: T1, reference (REF) STING allele (Homo sapiens, UniProt Q86WV6); assay: Cytokine transcript induction (qRT-PCR) in STING^REF/REF hPBMCs; type: cell-based; details: for relative normalized IFNβ expression, in words: FIGS. 8A-B, 2 hours stimulation, 100 μM to 0.1 μM; for cytokine responses (IFNβ, TNFα, IL-6, IFNγ, IL-12p40 expression), in words: FIGS. 9B-13B, 2 hours and 6 hours stimulation
T1 construct: endogenous in cells
T1 sequence (Q86WV6 whole entry): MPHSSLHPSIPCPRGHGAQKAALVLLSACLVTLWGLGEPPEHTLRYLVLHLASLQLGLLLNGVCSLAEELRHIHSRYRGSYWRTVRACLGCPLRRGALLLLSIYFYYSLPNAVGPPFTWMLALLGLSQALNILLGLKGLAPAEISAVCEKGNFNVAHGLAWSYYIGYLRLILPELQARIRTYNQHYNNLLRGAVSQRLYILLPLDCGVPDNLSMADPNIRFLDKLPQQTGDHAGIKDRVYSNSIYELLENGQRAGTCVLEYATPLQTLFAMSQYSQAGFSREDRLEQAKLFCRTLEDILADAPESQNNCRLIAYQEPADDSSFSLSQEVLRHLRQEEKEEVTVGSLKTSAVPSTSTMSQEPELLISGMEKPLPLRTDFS
Protocol: The induction of type I interferon was measured in human primary blood mononuclear cells (hPBMCs) to evaluate the potency of mono- or di-F-CDN compounds as described herein. hPBMCs from two unique donors were used: one donor was homozygous for the wild type (WT) STING allele (STING^WT/WT) and the other donor was homozygous for the so-called reference (REF) STING allele (STING^REF/REF). The STING genotype of these donors was determined by PCR amplification and sequencing: genomic DNA was isolated from 10^4 hPBMCs using Quick Extract DNA Extraction Solution (Epicentre) and was used to amplify regions of exon 3, 6, and 7 of the human STING gene.
Cells were incubated at 37° C., 5% CO2 with concentrations ranging from 100 μM to 0.1 μM of each CDN. After 2 hours (FIGS. 7 and 8) or 2 hours and 6 hours (FIGS. 9-13) stimulation, cells were harvested by centrifugation and washed once with phosphate-buffered saline. Cellular RNA was isolated using the Aurum Total RNA 96 Kit and cDNA was synthesized using the iScript cDNA Synthesis Kit. Target and reference gene expression was assessed by real-time qRT-PCR using PrimePCR probe assays and the CFX96 gene cycler (all reagents and equipment from BioRad). Normalized IFNβ expression was expressed relative to untreated cells. Target genes included type I interferon (IFNβ), Th1-associated cytokines (IFNγ, IL-12p40) and NF-kB dependent inflammatory cytokines (TNFα, IL-6). Reference genes included GUSB alone (FIGS. 7 and 8) or GUSB and HSP90AB1 (FIGS. 9-13).

B16.F10 = B16.F10 melanoma mouse model, intra-tumoral injection; type: in vivo, C57BL/6 female mice; details: FIG. 15A, IT 10 or 100 μg, three injections, vs HBSS
Protocol: (§1) To assess the ability of the fluorinated derivative compounds to promote anti-tumor immunity in diverse murine tumor models, tumor cells were implanted (in 100 μL PBS) subcutaneously on the lower back of 6-8 week old C57BL/6 female mice. Treatments began when tumors reached a volume of approximately 100 mm^3, on approximately day 14 post tumor implantation (see table below for tumor type, number of cells, and day of IT injection). The CDN compounds were administered by IT injection (10 or 100 μg in a total volume of 40 μL HBSS), and repeated every three days for a total of three injections. The compounds 3′3′-RR-(2′F-A)(2′F-A) and 3′3′-RR-(2′F-G)(2′F-A) and control mice given vehicle only (40 μL HBSS) were dosed. Tumors were measured twice weekly.

hSTING(REF) = hSTING(REF) (Homo sapiens, UniProt Q86WV6); assay: Differential scanning fluorometry (DSF) binding to purified hSTING REF allele; set-up: DNA encoding amino acids 140-379 (amino acid numbering corresponding to Swiss Prot Q86WV6); 6xHIS (N, cleaved yes); SUMO (N, cleaved yes); made in house; host or cells: Rosetta2 (DE3) E. coli; details: for Tm shift compared with non fluorine substituted compounds and 2′3′-(G)(A), in words: FIG. 2, hSTING (REF); for binding relative to OH reference compound, in words / binding relative to naturally produced 2′3′-(G)(A), in words: Table 4 comment, REF allele hSTING
Sequence of hSTING(REF) (Q86WV6 140-379): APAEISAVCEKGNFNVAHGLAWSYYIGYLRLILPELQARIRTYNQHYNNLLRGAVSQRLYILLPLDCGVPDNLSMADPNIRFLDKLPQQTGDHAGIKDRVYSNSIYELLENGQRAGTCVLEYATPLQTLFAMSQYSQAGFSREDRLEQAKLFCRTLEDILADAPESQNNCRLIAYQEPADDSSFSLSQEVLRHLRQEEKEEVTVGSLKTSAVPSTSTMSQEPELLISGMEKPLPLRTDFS

hSTING(WT) = hSTING(WT) (Homo sapiens, UniProt Q86WV6, H232R); assay: IFN-β luciferase reporter in HEK293T cells stably expressing hSTING(WT), digitonin permeabilization; details: FIGS. 5A-B, 0.1 μM to 100 μM and 6.25 μM CDN
Sequence of hSTING(WT) (Q86WV6 whole entry H232R): as the sequence (Q86WV6 whole entry) above, with H232R counted along it
Protocol: 24 hours later, cells were stimulated with native and synthetic CDN derivative molecules using digitonin permeabilization to ensure uniform uptake.
After 20 min, the stimulation mixtures were removed and 200 ul of DMEM media supplemented with 10% (vol/vol) fetal bovine serum, 1% L-Glutamine, and 1% Penicillin/Streptomycin was added. Cells were incubated an additional 6 hours (37° C., 5% CO2) and then cell lysates were prepared and reporter gene activity measured on a Spectramax M3 luminometer using the Dual-Glo Luciferase Assay System (Promega, catalog #E2920) as described by the manufacturer. IFNβ firefly luciferase reporter gene activity was normalized to TK renilla luciferase gene activity and plotted as fold induction over activity in unstimulated cells (mean+/−s.e.m.).

HIVgag p55 protein = assay: Immunization with HIVgag p55 protein plus CDN, splenocyte IFNγ ELISPOT; type: in vivo, BALB/c mice; details: 1 μg or 5 μg CDN in AddaVax with 5 μg HIVgag p55 s.c., day 7 IFNγ ELISPOT, vs no CDN; for HIVgag p55 antigen specific CD4+ T-cell response, in words: FIG. 16A
Protocol: To determine whether the fluorinated derivatives could elicit HIVgag-specific CD4^+ and CD8^+ T cell responses, BALB/c mice (n=4) were immunized subcutaneously with 0 μg (no CDN), 1 μg or 5 μg of CDN formulated in 2% squalene-and-water (AddaVax, Invivogen) with 5 μg HIVgag p55 protein. Seven days following the vaccination, spleens were harvested from the mice and splenocytes prepared. 2×10^5 splenocytes were stimulated overnight in an IFNγELISPOT assay with media alone (unstimulated) or with 1 μM HIVgag p55 CD4^+ and CD8^+ specific peptides. IFNγ ELISPOTs were developed and quantified using a CTL plate reader and ImmunoSpot software. 3′3′-RR-(2′F-A)(2′F-A) and 3′3′-RR-(2′F-G)(2′F-A) were evaluated for their ability to induce HIVgag-specific immune responses.

MC38 = MC38 colon carcinoma mouse model, intra-tumoral injection; type: in vivo, C57BL/6 female mice; details: FIG. 15B, IT 10 or 100 μg, three injections, vs HBSS
Protocol: as §1

[2] = listed as 3′3′-RR-(2′F-G)(2′F-A)
[3] = listed as 3′3′-RR-(2′F-A)(2′F-A)

Structure (SMILES) | IFNβ transcript level compared to cells similarly dosed with 2′3′-(G)(A) [1] | relative normalized IFNβ expression, in words [1, 2] | cytokine responses (IFNβ, TNFα, IL-6, IFNγ, IL-12p40 expression), in words [1] | tumor volume, in words (B16.F10) | Tm shift compared with non fluorine substituted compounds and 2′3′-(G)(A), in words (hSTING(REF)) | binding relative to OH reference compound, in words (hSTING(REF)) | binding relative to naturally produced 2′3′-(G)(A), in words (hSTING(REF)) | IFNβ luciferase reporter induction by hSTING(WT), in words (hSTING(WT); [2]) | HIVgag p55 antigen specific CD4+ T-cell response, in words (HIVgag p55 protein) | HIVgag p55 antigen specific CD8+ T-cell response, in words (HIVgag p55 protein; FIG. 16B) | tumor volume, in words (MC38) | relative normalized IFNβ expression, in words [1, 3] | tumor volume, in words (B16.F10; [3]) | hSTING Tm Shift REF (hSTING(REF); DSF, 1 mg/ml STING AA140-379, ligand 1 mM) | IFNβ luciferase reporter induction by hSTING(WT), in words (hSTING(WT); [3])
Nc1nc2c(ncn2[C@@H]2O[C@@H]3CO[P@@](=O)(S)O[C@H]4[C@@H](F)[C@H](n5cnc6c(N)ncnc65)O[C@@H]4CO[P@@](=O)(S)O[C@H]3[C@H]2F)c(=O)[nH]1 (stereo in doubt) [Compound 14, 2-Amino-9-((2R,3R,3aR,5R,7aR,9R,10R,10aR,12R,14aR)-9-(6-amino-9H-purin-9-yl)-3,10-difluoro-5,12-dimercapto-5,12-dioxidooctahydro-2H,7H-difuro [3,2-d:3′,2′-j][1,3,7,9]tetraoxa[2,8]diphosphacyclododecin-2-yl)-1,9-dihydro-6H-purin-6-one] | 12- to 70 fold | stimulated dose-dependent production of IFNβ transcript; also recorded: more potent inducers of IFNβ transcript STING^REF/REF hPBMCs than 2′3′-(G)(A); also recorded: extremely potent stimulator of the REF STING allele | induced more robust dose-dependent responses of each of the cytokines tested | induced significant tumor inhibition as compared to HBSS | increased Tm shift | improved binding | improved binding | strongly induced IFNβ reporter activity by hSTING(WT); also recorded: more potently induced IFNβ reporter activity by hSTING(WT) than the compound 3′3′-(G)(A) | eliciting significant CD4+ T cell responses against HIVgag p55 | elicited significant CD8^+ T cell responses against HIVgag p55 | elicited complete tumor regression at all doses tested | – | – | – | –
Nc1ncnc2c1ncn2[C@@H]1O[C@@H]2CO[P@@](=O)(S)O[C@H]3[C@@H](F)[C@H](n4cnc5c(N)ncnc54)O[C@@H]3CO[P@@](=O)(S)O[C@H]2[C@H]1F [Compound 6, (2R,3R,3aR,5R,7aR,9R,10R,10aR,12R,14aR)-2,9-bis(6-amino-9H-purin-9-yl)-3,10-difluoro-5,12-dimercaptooctahydro-2H,7H-difuro[3,2-d:3′,2′-j][1,3,7,9]tetraoxa[2,8]diphosphacyclododecine 5,12-dioxide] | – | – | induced more robust responses of all of the cytokines tested | – | increased Tm shift | improved binding | improved binding | – | eliciting significant CD4+ T cell responses against HIVgag p55 | – | elicited complete tumor regression at all doses tested | stimulated dose-dependent production of IFNβ transcript; also recorded: more potent inducers of IFNβ transcript STING^REF/REF hPBMCs than 2′3′-(G)(A) | induced significant tumor inhibition as compared to HBSS; also recorded: complete tumor regression at the 100 μg dose | 9.1 °C | induced higher levels of IFNβ reporter activity by hSTING(WT) than the non-fluorine substituted compounds; also recorded: stimulated higher levels of IFNβ reporter activity by hSTING(WT) when compared to the endogenous cellular ligand 2′3′-(G)(A)
